Measured values from US8546095B2, “Methods for determination of calcineurin activity and uses in predicting therapeutic outcomes” (Emory University, priority 2007, dated 2013).
Entries after “also recorded” stand apart in the source; their conditions may differ.

What was measured:
recombinant calcineurin = biological target: T1, recombinant calcineurin (Homo sapiens, UniProt Q08209); experiment: Fluorimetric calcineurin assay with recombinant calcineurin and standard controls; format: biochemical; details: 0.2 ng recombinant calcineurin, ANOVA
T1 construct: purchased Calbiochem (San Diego, Calif.)
Description: Reactions using 0.2 ng of recombinant calcineurin along with standard controls for calcineurin activity, including heat inactivation of the recombinant enzyme, addition of an autoinhibitory peptide, absence of calcium, and chelation of calcium with EGTA were investigated.
Recombinant calcineurin was from Calbiochem (San Diego, Calif.), and all other chemicals were obtained from Sigma (St Louis, Mo.). The RII peptide, Fluoresceinyl-[…]frican-AmericanE, and its phosphorylated analog (Fluoresceinyl-[…]pSVAfrican-AmericanE where pS=L-phosphoserine) were synthesized by Fmoc-based solid-phase peptide synthesis using model Liberty microwave-assisted peptide synthesizer (CEM Corporation, Matthews, N.C.). The peptides were purified to apparent homogeneity by reversed-phase HPLC and their masses were confirmed by mass spectrometry. Peptides were diluted in: Tris 50 mM, 100 mM NaCl, 0.5 mM DTT, and 0.1 mg/ml bovine serum albumen to a final concentration of 30 ng/ml. Reaction buffer consisted of 0.1 mg/ml BSA, 35 mM Tris pH 7.5, 25 mM NaCl, 2.0 mM MgCl2, 270 μM DTT, 500 μM EDTA, 419 nM Okadaic acid (in 0.63% ethanol), 25 mM CaCl2. Titanium oxide plates were pre-incubated with a binding buffer consisting of 0.1% acetic acid in 10% acetonitrile. […]

calcineurin [1] = experiment: Fluorimetric calcineurin assay in isolated PBMCs (PMA or anti-CD3 stimulation, in vitro calcineurin inhibitors); format: cell-based, human
Description: It was also shown that the fold change in calcineurin activity in response to anti-CD3 was sensitive to tacrolimus inhibition. Thus, PBMCs from control subjects were incubated with increasing amounts of tacrolimus before the anti-CD3 stimulation and the calcineurin activity was then measured.
It was further determined whether in vitro addition of calcineurin inhibitors could further inhibit calcineurin activity in samples from transplant subjects.
(i) Collection of samples. Heparinized blood can be obtained by routine phlebotomy and PBMC isolated and frozen in 10% DMSO. Samples will be thawed and viability confirmed prior to treatment.
(ii) Treatment of T cells. Three parameters of calcineurin activity: 1) base-line levels of the enzyme; 2) the increase in calcineurin in response to general stimuli; and, 3) the response of calcineurin to T cell receptor specific activation.
PBMCs were thawed, viable cells counted and then separated into aliquots of about 2×10^5 cells. Based on preliminary experiments, samples were treated with anti-CD3 (Muromonab, 10 μg/ml) antibodies for 15 mins at 37° C. Based on preliminary dose and time curves, PMA was added to aliquots for 5 mins. Control samples were included with either no treatment or adjuvant-only (DMSO). These manipulations yielded base-line activity, maximum non-specific activation, and TCR-stimulated activity.
(iii) 20 μl diluted peptide substrate, 20 μl of reaction buffer, and 20 μl of sample were loaded into individual wells of a 96-well plate and incubated at 30° C. for 10 minutes. During the reaction time, a 96-well plate with titanium oxide-coated wells was prepared by adding 50 μl binding buffer (0.1% acetic acid in 10% acetonitrile) per well. After the incubation period, reactions were transferred into prepared titanium oxide-coated wells following by gentle shaking for 5 minutes. The contents of each well were then removed to a white 96-well plate preloaded with 20 μl of 3N ammonium hydroxide.

calcineurin [2] = experiment: Fluorimetric calcineurin assay in cultured primary renal fibroblasts
Description: FIG. 16A: Cultured renal fibroblasts were treated with a variety of stimuli including arginine vasopressin (AVP), dexamethasone, and phorbol myristate acetate (PMA) to induce calcineurin activity. In addition, some cells were pre-treated with calcineurin inhibitors prior to the addition of PMA. Cells were lysed according to previously established methods and then calcineurin activity was determined. Data shown is the mean+/−SEM of triplicate samples compared to a standard curve. […] Tissues were lysed according to previously established methods and calcineurin activity determined. Data shown are the mean+/−SEM of triplicate samples compared to a standard curve.
When the absorbance values obtained were compared to a standard curve of recombinant calcineurin run simultaneously, a determination of calcineurin activity in each condition can be made.

calcineurin [3] = experiment: Radiometric calcineurin assay in isolated T cells after T cell receptor stimulation with anti-CD3/anti-CD28 antibodies, with or without inhibitor pre-treatment; format: cell-based, human; details: for effect of pre-treatment on anti-CD3/anti-CD28-stimulated calcineurin activity (words): control T cells, tacrolimus/FK506 5 ng/ml, cyclosporine A printed as 500 ng/ml, 5 μg/ml or 5 mg/ml
Description: (§1) 40 mLs of heparinized blood was collected from the study participants. T cells were then isolated using the Prepacyte SC reagent (BioE WBP2000 St. Paul Minn.) antibody negative selection and Vitalyse (BioE KI-135) treated to eliminate remaining erythrocytes. Cells were pelleted by centrifugation, washed with 1× phosphate-buffered saline, and resuspended in RPMI 1640 containing penicillin/streptomycin antibiotics, 10% fetal calf serum, 2 mM 1-glutamine, 25 mM glucose, and 1 mM sodium pyruvate.
(§2) Calcineurin activity was determined using an in vitro assay as described in Fruman et al, Methods in Enzymology 9, 146-154 (1996) and Lea et al., J Am Soc Nephrol 13, 1750-1756 (2002), both of which are incorporated herein by reference in their entireties. Following treatment, isolated lymphocytes were pelleted and then re-suspended in calcineurin buffer ([…], 250 μM KCl, 10 mg/ml BSA, 5 mg/ml DTT, pH 7.5). Cells were then lysed by three cycles of freeze-thawing in liquid nitrogen and a 37° C. water bath. The concentration of harvested proteins was determined by the BCA method (Pierce Biotechnology, Rockford, Ill.) and then […] of sample was incubated with equal volumes of calcineurin reaction buffer (100 nM calmodulin, 0.1 mM CaCl, 25 μgs calyculin, 3 μg cold RII peptide) and 30 γ^32P[ATP]-labeled RII peptide substrate.
(§3) The reaction was allowed to proceed for 10 minutes, and then 10 mgs/ml charcoal/TCA solution was added to each sample to stop the reaction. Finally, samples were passed through millipore filtration buckets, scintillation fluid added, and the amount of released phosphates read in an automated counter. Reactions were performed in triplicate and final data for subjects were calculated as the mean of triplicate samples minus control reactions to normalize for background.
T cell isolates were stimulated for 15 minutes with multiple agents including calcium ionophore, phorbal myristate […] (PMA), and anti-CD3/CD28 antibodies. […] Next, T cells were pre-treated for 30 minutes with cyclosporine (5 mg/ml) or FK506 (5 ng/ml) and then CD3/CD28-mediated stimulation was measured.

[4] = human, in vivo
Description: Stimulation of calcineurin activity was also determined for caucasian and African-American transplant patients. […] Trough blood levels of FK506 for both caucasian and African-American transplant patients were obtained at the time of T cell isolation.

calcineurin [5] = experiment: Radiometric calcineurin assay, basal activity in isolated CD3+/4+ T cells treated in vitro; format: cell-based, human; details: for inhibition of basal calcineurin activity: 5 ng/ml
Description: as §1, §2, §3
To ensure that calcineurin activity was measured in a uniform population of cells, experiments were performed in isolated lymphocytes that were enriched for CD3^+/4^+ T cells using erythrocyte lysis, gradient centrifugation, and Prepacyte SC reagent (BioE, St. Paul Minn.).
First, T cells were isolated from control subjects and were then treated in vitro with vehicle (DMSO) or 5 ng/ml tacrolimus for 15 minutes.

**Q.** For `O=C(O)CN(CCOCCOCCN(CC(=O)O)CC(=O)O)CC(=O)O` [EGTA], which “effect on dephosphorylation by recombinant calcineurin” value (recombinant calcineurin) is on record?
**A.** significantly reduced

**Q.** With `CCCCCCCCCCCCCC(=O)O[C@@H]1[C@@H](C)[C@@]2(O)[C@@H](C=C(CO)C[C@]3(O)C(=O)C(C)=C[C@@H]23)[C@@H]2C(C)(C)[C@]12OC(C)=O` [PMA, phorbol myristate acetate] as the molecule, how does the “stimulation of calcineurin activity” value (calcineurin [1]; control PBMCs) read?
**A.** stimulated calcineurin activity in control cells

**Q.** And the “stimulation of calcineurin activity” value (calcineurin [1]; transplant recipient-derived PBMCs)?
**A.** not in the transplant recipient-derived PBMC samples

**Q.** What about the “stimulation of calcineurin activity” value (calcineurin [2]) of the same molecule?
**A.** significantly stimulated calcineurin activity

**Q.** Which “stimulation of calcineurin activity” value (calcineurin [1]; control PBMCs) does the source give for “anti-CD3: anti-CD3 (Muromonab, 10 μg/ml) antibodies for TCR-specific activation without co-stimulation” here?
**A.** observed only in control PBMCs

**Q.** Which “effect on fold change in calcineurin activity with anti-CD3 stimulation” value (calcineurin [1]; control PBMCs incubated with increasing amounts before anti-CD3 stimulation) does the source give for `C=CC[C@@H]1/C=C(\C)C[C@H](C)C[C@H](OC)[C@H]2O[C@@](O)(C(=O)C(=O)N3CCCC[C@H]3C(=O)O[C@H](/C(C)=C/[C@@H]3CC[C@@H](O)[C@H](OC)C3)[C@H](C)[C@@H](O)CC1=O)[C@H](C)C[C@@H]2OC` [tacrolimus] here?
**A.** inhibited by tacrolimus in a dose-dependent fashion; also recorded: inhibited in control PBMCs in a dose-responsive manner

**Q.** What about the “effect of pre-treatment on anti-CD3/CD28-stimulated calcineurin activity” value (calcineurin [3]; African-American control subjects, listed as FK506) of the same molecule?
**A.** neither cyclosporine A nor FK506 significantly reduced calcineurin activity; also recorded: neither cyclosporine nor FK506 pre-treatment inhibited calcineurin activity

**Q.** What about the “effect of pre-treatment on anti-CD3/CD28-stimulated calcineurin activity” value (calcineurin [3]; caucasian control subjects) of the same molecule?
**A.** inhibited

**Q.** And the “effect of pre-treatment on anti-CD3/anti-CD28-stimulated calcineurin activity (words)” value (calcineurin [3])?
**A.** blocked the CD3/CD28 stimulation; also recorded: blocked the rise in calcineurin activity; also recorded: effective at blocking the induction

**Q.** And the “effect of pre-treatment on anti-CD3/anti-CD28-stimulated calcineurin activity (words)” value (calcineurin [3]; listed as FK506)?
**A.** significantly reduced CD3/CD28-mediated calcineurin activity; also recorded: blocked stimulation

**Q.** And the mean plasma level [4]?
**A.** 11.4 ng/mL

**Q.** And the “effect of pre-treatment on PMA-stimulated calcineurin activity” value (calcineurin [2])?
**A.** blocked stimulation by PMA

**Q.** And the “effect on basal calcineurin activity” value (calcineurin [5]; control T cells (N=81), 5.0 ng/ml in vitro, p<0.001)?
**A.** significantly decreased calcineurin activity

**Q.** And the “calcineurin activity after in vitro tacrolimus” value (calcineurin [5]; control subjects' T cells, 5 ng/ml for 15 minutes, vehicle (DMSO) 913±6)?
**A.** 662±6 fmole/μg protein/min

**Q.** And the “inhibition of basal calcineurin activity” value (calcineurin [5]; female control subjects)?
**A.** 30±4%

**Q.** And the “inhibition of basal calcineurin activity” value (calcineurin [5]; male control subjects)?
**A.** 27±4%

**Q.** Which “stimulation of calcineurin activity” value (calcineurin [2]) does the source give for `NC(=O)CC[C@@H]1NC(=O)[C@H](Cc2ccccc2)NC(=O)[C@H](Cc2ccc(O)cc2)NC(=O)[C@@H](N)CSSC[C@@H](C(=O)N2CCC[C@H]2C(=O)N[C@@H](CCCN=C(N)N)C(=O)NCC(N)=O)NC(=O)[C@H](CC(N)=O)NC1=O` [Arginine vasopressin (AVP), arginine vasopressin] here?
**A.** significantly stimulated calcineurin activity
